{"source": "patent US20240299504A1", "about": "“COMPOSITIONS AND METHODS FOR TREATING ALZHEIMERS DISEASE” (priority 2023, published 2024)", "system": "primary cultured astrocytes from WT and 5×FAD pups", "assay": "PTH1-34 induced signaling in primary cultured astrocytes (Western blot)", "type": "cell-based, mouse", "conditions": "100 ng/ml PTH1-34, time course", "protocol": "Total proteins from cortex, hippocampus, or cultured astrocytes were extracted using RIPA lysis buffer [50 mM Tris-HCl (pH7.5), 150 mM NaCl, 1 mM EDTA, 1% v/v NP-40, 0.1% SDS, 1% sodium deoxycholate supplemented with Protease Inhibitor Cocktail (Roche) and 1 mM PMSF] and analyzed by Western Blot. Lysates were cleared by centrifugation at 12,000 g for 15 min at 4° C. to remove debris and to obtain homogenates. Homogenates samples were resolved by SDS-PAGE (8˜15%) gels and then electroblotted onto nitrocellulose membranes (Cat #1620112, Bio-Rad Laboratories). Membranes were blocked with 5% BSA (w/v) in TBS-Tween (50 mM Tris, 150 mM NaCl, pH7.6 and 0.1% v/v Tween-20) for 1 h and then probed with indicated primary antibodies overnight in 4° C. Membranes were washed with TBST 4 times and incubated with HRP-conjugated secondary antibodies (1:5000 in TBST) at room temperature for 1 h. After washing with TBST 3 times, antibody reactivity was detected by the Enhanced Chemiluminescence (ECL) detection system (Amersham Biosciences). Band density of proteins was normalized in relation to loading control and analyzed using NIH ImageJ software. Primary anti-bodies used were as follows: IBA1 (ab178846, rabbit), p16 (ab51243, rabbit), p53 (ab131442, rabbit), and anti-beta Actin (ab8226, mouse) from Abcam (Cambridge, MA, USA); GFAP (12389, rabbit), p-CREB (Ser133) (9198S, rabbit), p-AKT(S473) (4060P, rabbit), AKT (9272S, rabbit) and GAPDH (97166S, mouse) from Cell Signaling (Danvers, MA, USA); PTH1R (PA5-77,689, rabbit) from Invitrogen (Carlsbad, CA, USA); p-ERK1/2 (sc-136521, mouse) and ERK1/2 (sc-514302, mouse) from Santa Cruz Biotechnology (Santa Cruz, CA, USA).\nAstrocyte culture was performed according to the standard protocol with some modifications as described in previous literature. In brief, the cerebral cortex and hippocampus of postnatal day 3 (P3) female pups were dissected under a stereomicroscope and placed in ice-cold calcium- and magnesium-free HBSS (Hanks Balanced Salt Solution). […]", "data": [{"smiles": "CC[C@H](C)[C@H](NC(=O)[C@H](CCC(=O)O)NC(=O)[C@H](CO)NC(=O)[C@@H](NC(=O)[C@@H](N)CO)C(C)C)C(=O)N[C@@H](CCC(N)=O)C(=O)N[C@@H](CC(C)C)C(=O)N[C@@H](CCSC)C(=O)N[C@@H](Cc1cnc[nH]1)C(=O)N[C@@H](CC(N)=O)C(=O)N[C@@H](CC(C)C)C(=O)NCC(=O)N[C@@H](CCCCN)C(=O)N[C@@H](Cc1cnc[nH]1)C(=O)N[C@@H](CC(C)C)C(=O)N[C@@H](CC(N)=O)C(=O)N[C@@H](CO)C(=O)N[C@@H](CCSC)C(=O)N[C@@H](CCC(=O)O)C(=O)N[C@@H](CCCN=C(N)N)C(=O)N[C@H](C(=O)N[C@@H](CCC(=O)O)C(=O)N[C@@H](Cc1c[nH]c2ccccc12)C(=O)N[C@@H](CC(C)C)C(=O)N[C@@H](CCCN=C(N)N)C(=O)N[C@@H](CCCCN)C(=O)N[C@@H](CCCCN)C(=O)N[C@@H](CC(C)C)C(=O)N[C@@H](CCC(N)=O)C(=O)N[C@@H](CC(=O)O)C(=O)N[C@H](C(=O)N[C@@H](Cc1cnc[nH]1)C(=O)N[C@@H](CC(N)=O)C(=O)N[C@@H](Cc1ccccc1)C(=O)O)C(C)C)C(C)C", "note": "[PTH1-34]", "values": [{"measurement": "p-AKT protein level", "result": "little effect"}, {"measurement": "p-CREB protein level", "result": "increases p-CREB"}, {"measurement": "p-ERK protein level", "result": "little effect"}]}]}
